Laboratory results published in patent publication US9850225B2, “Compounds useful as immunomodulators” (BRISTOL-MYERS SQUIBB COMPANY, priority 2014, dated 2017).

biological target: PD-1/PD-L1 interaction (PD-1-Ig / PD-L1-His) (Homo sapiens (Human), UniProt Q9NZQ7); test: PD-1/PD-L1 Homogenous Time-Resolved Fluorescence (HTRF) binding assay; settings: PD-1/PD-L1 HTRF binding assay; numeric value; read-out: Range or IC50
Summary of the method: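 Human PD-L1-His (10 nM final) was pre-incubated with inhibitor for 15 min, then PD-1-Ig (20 nM final) was added for a further 15 min in dPBS with 0.1% BSA and 0.05% Tween-20. Binding was detected by HTRF using Eu-cryptate anti-Ig (1 nM) and APC anti-His (20 nM).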

Sequence of PD-1/PD-L1 interaction (PD-1-Ig / PD-L1-His) (Q9NZQ7 other isoform, or with tags, fused parts or gaps): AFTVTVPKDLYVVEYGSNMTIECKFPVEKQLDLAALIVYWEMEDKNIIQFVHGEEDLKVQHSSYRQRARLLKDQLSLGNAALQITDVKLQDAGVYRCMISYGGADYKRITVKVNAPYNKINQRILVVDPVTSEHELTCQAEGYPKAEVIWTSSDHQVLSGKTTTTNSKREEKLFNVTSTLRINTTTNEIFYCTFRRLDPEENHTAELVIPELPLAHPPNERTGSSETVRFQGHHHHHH

Row | IC50 [nM] | SMILES
1 | 10 | Cc1c(COc2cc(OCc3cncc(C(=O)O)c3)c(CN[C@@H](CCCN)C(=O)O)cc2Cl)cccc1-c1ccc2c(c1)OCCO2 [Example 2002, (S)-5-((2-(((4-amino-1-carboxybutyl)amino)methyl)-4-chloro-5-((3-(2,3-dihydrobenzo[b][1,4]dioxin-6-yl)-2-methylbenzyl)oxy)phenoxy)methyl)nicotinic acid]

same assay, conditions: PD-1/PD-L1 HTRF binding assay; value given as range class; read-out: Range or IC50

Row | IC50 [nM] | SMILES
2 | 0.6 to 10 | Cc1cc(CN[C@](C)(CO)C(=O)O)c(OCc2cncc(C#N)c2)cc1OCc1cccc(-c2ccc3c(c2)OCCO3)c1C#N [Example 1311, (R)-2-(4-(2-cyano-3-(2,3-dihydrobenzo[b][1,4]dioxin-6-yl)benzyloxy)-2-((5-cyanopyridin-3-yl)methoxy)-5-methylbenzylamino)-3-hydroxy-2-methylpropanoic acid]
3 | 0.6 to 10 | N#Cc1cccc(COc2cc(OCc3cccc(-c4ccc5c(c4)OCCO5)c3C#N)c(Br)cc2CN[C@@H](CO)C(=O)O)c1 [Example 1312, (S)-2-((5-bromo-4-((2-cyano-3-(2,3-dihydrobenzo[b][1,4]dioxin-6-yl)benzyl)oxy)-2-((3-cyanobenzyl)oxy)benzyl)amino)-3-hydroxypropanoic acid]
4 | 0.6 to 10 | N#Cc1cccc(COc2cc(OCc3cccc(-c4ccc5c(c4)OCCO5)c3C#N)c(Br)cc2CN2CCCC[C@H]2C(=O)O)c1 [Example 1313, (S)-1-(5-bromo-4-((2-cyano-3-(2,3-dihydrobenzo[b][1,4]dioxin-6-yl)benzyl)oxy)-2-((3-cyanobenzyl)oxy)benzyl)piperidine-2-carboxylic acid]
5 | 0.6 to 10 | N#Cc1cccc(COc2cc(OCc3cccc(-c4ccc5c(c4)OCCO5)c3C#N)c(Br)cc2CNC[C@@H](O)CC(=O)O)c1 [Example 1314, (S)-4-((5-bromo-4-((2-cyano-3-(2,3-dihydrobenzo[b][1,4]dioxin-6-yl)benzyl)oxy)-2-((3-cyanobenzyl)oxy)benzyl)amino)-3-hydroxybutanoic acid]
6 | 0.6 to 10 | CC(=O)NCCNCc1cc(Br)c(OCc2cccc(-c3ccc4c(c3)OCCO4)c2C#N)cc1OCc1cccc(C#N)c1 [Example 1315, N-(2-((5-bromo-4-((2-cyano-3-(2,3-dihydrobenzo[b][1,4]dioxin-6-yl)benzyl)oxy)-2-((3-cyanobenzyl)oxy)benzyl)amino)ethyl)acetamide]
7 | 0.6 to 10 | Cc1c(COc2cc(OCc3cncc(C#N)c3)c(CNC[C@@H](O)CC(=O)O)cc2Br)cccc1-c1ccc2c(c1)OCCO2 [Example 1316, (S)-4-(5-bromo-2-((5-cyanopyridin-3-yl)methoxy)-4-(3-(2,3-dihydrobenzo[b][1,4]dioxin-6-yl)-2-methylbenzyloxy)benzylamino)-3-hydroxybutanoic acid]
8 | 0.6 to 10 | CC(=O)NCCNCc1cc(Br)c(OCc2cccc(-c3ccc4c(c3)OCCO4)c2C)cc1OCc1cncc(C#N)c1 [Example 1317, N-(2-(5-bromo-2-((5-cyanopyridin-3-yl)methoxy)-4-(3-(2,3-dihydrobenzo[b][1,4]dioxin-6-yl)-2-methylbenzyloxy)benzylamino)ethyl)acetamide]
9 | 0.6 to 10 | Cc1c(COc2cc(OCc3cncc(C#N)c3)c(CN[C@@H](CO)C(=O)O)cc2Br)cccc1-c1ccc2c(c1)OCCO2 [Example 1318, (S)-2-(5-bromo-2-((5-cyanopyridin-3-yl)methoxy)-4-(3-(2,3-dihydrobenzo[b][1,4]dioxin-6-yl)-2-methylbenzyloxy)benzylamino)-3-hydroxypropanoic acid]
10 | 0.6 to 10 | Cc1c(COc2cc(OCc3cncc(C#N)c3)c(CN3CCCC[C@H]3C(=O)O)cc2Br)cccc1-c1ccc2c(c1)OCCO2 [Example 1319, (S)-1-(5-bromo-2-((5-cyanopyridin-3-yl)methoxy)-4-(3-(2,3-dihydrobenzo[b][1,4]dioxin-6-yl)-2-methylbenzyloxy)benzyl)piperidine-2-carboxylic acid]
11 | 0.6 to 10 | Cc1c(COc2cc(OCc3cncc(C#N)c3)c(CN[C@](C)(CO)C(=O)O)cc2Br)cccc1-c1ccc2c(c1)OCCO2 [Example 1320, (R)-2-(5-bromo-2-((5-cyanopyridin-3-yl)methoxy)-4-(3-(2,3-dihydrobenzo[b][1,4]dioxin-6-yl)-2-methylbenzyloxy)benzylamino)-3-hydroxy-2-methylpropanoic acid]
12 | 0.6 to 10 | Cc1c(COc2cc(OCc3cncc(C#N)c3)c(CN[C@@](C)(CO)C(=O)O)cc2Br)cccc1-c1ccc2c(c1)OCCO2 [Example 1321, (S)-2-(5-bromo-2-((5-cyanopyridin-3-yl)methoxy)-4-(3-(2,3-dihydrobenzo[b][1,4]dioxin-6-yl)-2-methylbenzyloxy)benzylamino)-3-hydroxy-2-methylpropanoic acid]
13 | 0.6 to 10 | Cc1c(COc2cc(OCc3cncc(C#N)c3)c(CNCCO)cc2Br)cccc1-c1ccc2c(c1)OCCO2 [Example 1322, 5-((4-bromo-5-(3-(2,3-dihydrobenzo[b][1,4]dioxin-6-yl)-2-methylbenzyloxy)-2-((2-hydroxyethylamino)methyl)phenoxy)methyl)nicotinonitrile]
14 | 0.6 to 10 | Cc1c(COc2cc(OCc3cncc(C#N)c3)c(CN3CCCC[C@@H]3C(=O)O)cc2Br)cccc1-c1ccc2c(c1)OCCO2 [Example 1323, (R)-1-(5-bromo-2-((5-cyanopyridin-3-yl)methoxy)-4-(3-(2,3-dihydrobenzo[b][1,4]dioxin-6-yl)-2-methylbenzyloxy)benzyl)piperidine-2-carboxylic acid]
15 | 10 to 100 | Cc1c(C#N)cncc1COc1cc(OCc2cccc(-c3ccccc3)c2C)ccc1CN[C@H](CO)C(=O)O [Example 1324, (R)-2-(2-((5-cyano-4-methylpyridin-3-yl)methoxy)-4-((2-methylbiphenyl-3-yl)methoxy)benzylamino)-3-hydroxypropanoic acid]
16 | 10 to 100 | Cc1c(COc2ccc(CN[C@H](CO)C(=O)O)c(OCc3cccc(C(N)=O)c3)c2)cccc1-c1ccc2c(c1)OCCO2 [Example 1325, (R)-2-((2-((3-carbamoylbenzyl)oxy)-4-((3-(2,3-dihydrobenzo[b][1,4]dioxin-6-yl)-2-methylbenzyl)oxy)benzyl)amino)-3-hydroxypropanoic acid]
17 | 0.6 to 10 | Cc1c(COc2ccc(CN[C@](C)(CO)C(=O)O)c(OCc3cccc(C(N)=O)c3)c2)cccc1-c1ccc2c(c1)OCCO2 [Example 1326, (R)-2-((2-((3-carbamoylbenzyl)oxy)-4-((3-(2,3-dihydrobenzo[b][1,4]dioxin-6-yl)-2-methylbenzyl)oxy)benzyl)amino)-3-hydroxy-2-methylpropanoic acid]
18 | 0.6 to 10 | Cc1c(COc2ccc(CN[C@H](CO)C(=O)O)c(OCc3cncc(C#N)c3)c2)cccc1-c1ccccc1 [Example 1327, (R)-2-((2-((5-cyanopyridin-3-yl)methoxy)-4-((2-methyl-[1,1′-biphenyl]-3-yl)methoxy)benzyl)amino)-3-hydroxypropanoic acid]
19 | 0.6 to 10 | Cc1c(COc2ccc(CNC[C@@H](O)CC(=O)O)c(OCc3cncc(C#N)c3)c2)cccc1-c1ccccc1 [Example 1328, (S)-4-((2-((5-cyanopyridin-3-yl)methoxy)-4-((2-methyl-[1,1′-biphenyl]-3-yl)methoxy)benzyl)amino)-3-hydroxybutanoic acid]
20 | 0.6 to 10 | Cc1c(COc2ccc(CN3CCCC[C@H]3C(=O)O)c(OCc3cncc(C#N)c3)c2)cccc1-c1ccccc1 [Example 1329, (S)-1-(2-((5-cyanopyridin-3-yl)methoxy)-4-((2-methyl-[1,1′-biphenyl]-3-yl)methoxy)benzyl)piperidine-2-carboxylic acid]
21 | 0.6 to 10 | Cc1c(COc2ccc(CNC[C@@H](O)CC(=O)O)c(OCc3ccc(F)c(C#N)c3)c2)cccc1-c1ccccc1 [Example 1331, (S)-4-((2-((3-cyano-4-fluorobenzyl)oxy)-4-((2-methyl-[1,1′-biphenyl]-3-yl)methoxy)benzyl)amino)-3-hydroxybutanoic acid]
22 | 0.6 to 10 | Cc1c(COc2ccc(CN[C@H](CO)C(=O)O)c(OCc3ccc(F)c(C#N)c3)c2)cccc1-c1ccccc1 [Example 1332, (R)-2-((2-((3-cyano-4-fluorobenzyl)oxy)-4-((2-methyl-[1,1′-biphenyl]-3-yl)methoxy)benzyl)amino)-3-hydroxypropanoic acid]
23 | 0.6 to 10 | Cc1c(COc2ccc(CN[C@](C)(CO)C(=O)O)c(OCc3ccc(F)c(C#N)c3)c2)cccc1-c1ccccc1 [Example 1333, (R)-2-((2-((3-cyano-4-fluorobenzyl)oxy)-4-((2-methyl-[1,1′-biphenyl]-3-yl)methoxy)benzyl)amino)-3-hydroxy-2-methylpropanoic acid]
24 | 0.6 to 10 | Cc1c(COc2ccc(CN3CCCC[C@H]3C(=O)O)c(OCc3ccc(F)c(C#N)c3)c2)cccc1-c1ccccc1 [Example 1334, (S)-1-(2-((3-cyano-4-fluorobenzyl)oxy)-4-((2-methyl-[1,1′-biphenyl]-3-yl)methoxy)benzyl)piperidine-2-carboxylic acid]
25 | 100 to 20000 | CCOC(=O)c1cncc(COc2cc(OCc3cccc(-c4ccc5c(c4)OCCO5)c3C)c(Cl)cc2CN[C@@](C)(CO)C(=O)O)c1 [Example 2000, (S)-2-((5-chloro-4-((3-(2,3-dihydrobenzo[b][1,4]dioxin-6-yl)-2-methylbenzyl)oxy)-2-((5-(ethoxycarbonyl)pyridin-3-yl)methoxy)benzyl)amino)-3-hydroxy-2-methylpropanoic acid]
26 | 0.6 to 10 | Cc1c(COc2cc(OCc3cncc(C(=O)O)c3)c(CN[C@@](C)(CO)C(=O)O)cc2Cl)cccc1-c1ccc2c(c1)OCCO2 [Example 2001, (S)-5-((2-(((2-carboxy-1-hydroxypropan-2-yl)amino)methyl)-4-chloro-5-((3-(2,3-dihydrobenzo[b][1,4]dioxin-6-yl)-2-methylbenzyl)oxy)phenoxy)methyl)nicotinic acid]
